Measured values from patent US20240109930A1, “TRIAZOLYL-METHYL SUBSTITUTED ALPHA-D-GALACTOPYRANOSIDE DERIVATIVES” (Idorsia Pharmaceuticals Ltd, priority 2021, published 2024).

Assays:
human Gal-3 (hGal-3) = human Gal-3 (hGal-3) (Homo sapiens (Human), UniProt P17931); test: Competitive binding assay: biotinylated hGal-3 binding to microplate-adsorbed asialofetuin (ASF); details: IC50 values from several measurements given as geomean
Procedure, shortened: (§1)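 Biotinylated hGal-3 or hGal-1 (preferably cysteine-free Cys→Ser mutant), 300–1000 ng/mL, competes with compound for ASF-coated wells for 3 h at 4 °C. Bound lectin detected with streptavidin-peroxidase (80 ng/mL, 1 h, 4 °C) and ABTS by absorbance; IC50 reported as geomean of several runs.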

human Gal-1 (hGal-1) = human Gal-1 (hGal-1) (Homo sapiens, UniProt P09382, C131S/C17S/C43S/C61S/C89S); test: Competitive binding assay: biotinylated hGal-1 binding to microplate-adsorbed asialofetuin (ASF); details: IC50 values from several measurements given as geomean
Procedure, shortened: as §1

Chain of human Gal-3 (hGal-3) (P17931 whole entry): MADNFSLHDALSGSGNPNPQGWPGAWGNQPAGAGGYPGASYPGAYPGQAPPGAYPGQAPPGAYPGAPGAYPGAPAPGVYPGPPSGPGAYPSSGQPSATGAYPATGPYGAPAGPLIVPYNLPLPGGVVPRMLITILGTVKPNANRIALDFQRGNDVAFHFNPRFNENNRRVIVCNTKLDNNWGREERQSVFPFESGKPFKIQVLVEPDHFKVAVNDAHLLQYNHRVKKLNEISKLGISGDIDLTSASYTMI

Row | SMILES | IC50 (human Gal-3 (hGal-3)) [nM] | IC50 (human Gal-1 (hGal-1)) [nM]
1 | CO[C@@H]1[C@@H](n2cc(-c3ccc(Cl)c(F)c3F)nn2)[C@@H](O)[C@@H](CO)O[C@@H]1Cc1cn([C@@H]2CCCC[C@H]2F)nn1 [Example 2.1.81.C, (2R,3R,4S,5R,6R)-4-(4-(4-chloro-2,3-difluorophenyl)-1H-1,2,3-triazol-1-yl)-6-((1-((1R,2R)-2-fluorocyclohexyl)-1H-1,2,3-triazol-4-yl)methyl)-2-(hydroxymethyl)-5-methoxytetrahydro-2H-pyran-3-ol] | 60 | 2920
2 | CO[C@@H]1[C@@H](n2cc(-c3ccc(F)c(F)c3F)nn2)[C@@H](O)[C@@H](CO)O[C@@H]1Cc1cn(C2CC3(COC3)C2)nn1 [Ex 3.1.16.] | 120 | 1110
3 | CO[C@@H]1[C@@H](n2cc(-c3ccc(Cl)c(F)c3F)nn2)[C@@H](O)[C@@H](CO)O[C@@H]1Cc1cn([C@@H]2CC[C@@H]2F)nn1 (single isomer, unassigned) [Example 2.1.88.B, (2R,3R,4S,5R,6R)-4-(4-(4-chloro-2,3-difluorophenyl)-1H-1,2,3-triazol-1-yl)-6-((1-((1R*,2S*)-2-fluorocyclobutyl)-1H-1,2,3-triazol-4-yl)methyl)-2-(hydroxymethyl)-5-methoxytetrahydro-2H-pyran-3-ol] | 30 | 920
4 | CO[C@@H]1[C@@H](n2cc(-c3ccc(Cl)c(F)c3F)nn2)[C@@H](O)[C@@H](CO)O[C@@H]1Cc1cn(C2(CF)COC2)nn1 [Ex 2.1.52., (2R,3R,4S,5R,6R)-4-(4-(4-chloro-2,3-difluorophenyl)-1H-1,2,3-triazol-1-yl)-6-((1-(3-(fluoromethyl)oxetan-3-yl)-1H-1,2,3-triazol-4-yl)methyl)-2-(hydroxymethyl)-5-methoxytetrahydro-2H-pyran-3-ol [1-(1,2,3-tri-deoxy-2-methoxy-3-[4-(4-chloro-2,3-difluorophenyl)-1H-1,2,3-triazol-1-yl]-α-D-galacto-pyranose)-1-(1-(3-fluoromethyl-3-oxetanyl)-1H-triazol-4-yl)-methane]] | 20 | 650
5 | CO[C@@H]1[C@@H](n2cc(-c3ccc(Cl)c(F)c3F)nn2)[C@@H](O)[C@@H](CO)O[C@@H]1Cc1cn(C2CC(F)C2)nn1 (single isomer, unassigned) [Example 2.1.60.A] | 20 | 690
6 | CO[C@@H]1[C@@H](n2cc(-c3ccc(Cl)c(F)c3F)nn2)[C@@H](O)[C@@H](CO)O[C@@H]1Cc1cn(C2CCCCC2(F)F)nn1 (single isomer, unassigned) [Example 2.1.80.B] | 30 | 1740
7 | CO[C@@H]1[C@@H](n2cc(-c3ccc(Br)c(F)c3F)nn2)[C@@H](O)[C@@H](CO)O[C@@H]1Cc1cn(C2(C(F)(F)F)CC2)nn1 [Ex 4.1.54.] | 30 | 1170

Next, values leading:

Row | IC50 (human Gal-3 (hGal-3)) [nM] | IC50 (human Gal-1 (hGal-1)) [nM] | SMILES
8 | 50 | 2510 | CO[C@@H]1[C@@H](n2cc(-c3ccc(Cl)c(F)c3F)nn2)[C@@H](O)[C@@H](CO)O[C@@H]1Cc1cn(C2(CO)CCC2)nn1 [Ex 2.1.11.]
9 | 50 | 810 | CO[C@@H]1[C@@H](n2cc(-c3ccc(F)c(F)c3F)nn2)[C@@H](O)[C@@H](CO)O[C@@H]1Cc1cn(C23CCC(N)(CC2)CC3)nn1 [Ex 3.2.39.]
10 | 30 | 1070 | CO[C@@H]1[C@@H](n2cc(-c3ccc(Cl)c(F)c3F)nn2)[C@@H](O)[C@@H](CO)O[C@@H]1Cc1cn(C2(CF)CC2)nn1 [Ex 2.1.46.]
11 | 30 | 4430 | CO[C@@H]1[C@@H](n2cc(-c3ccc(Cl)c(F)c3F)nn2)[C@@H](O)[C@@H](CO)O[C@@H]1Cc1cn(C23CCC(O)(CC2)CC3)nn1 [Ex 2.1.8.]
12 | 40 | 2570 | CO[C@@H]1[C@@H](n2cc(-c3ccc(C)c(F)c3F)nn2)[C@@H](O)[C@@H](CO)O[C@@H]1Cc1cn(C2(CO)CC2)nn1 [Ex 1.1.4.]
13 | 30 | 1800 | CO[C@@H]1[C@@H](n2cc(-c3ccc(Br)c(F)c3F)nn2)[C@@H](O)[C@@H](CO)O[C@@H]1Cc1cn(C2(C)CC2)nn1 [Ex 4.1.23.]
